Source: patent US10125134B2 (Mirati Therapeutics, Inc., priority 2016, dated 2018)
Where a name gives a salt, the structure may show the parent alone. Read-outs that look alike come from different tables or passages of the source.

How the values were obtained:
[1] = target: KRas G12C (Homo sapiens, UniProt P01116, C118S/C51S/C80L/G12C); test: KRas G12C Modification Assay (LCMS detection of covalent adduct); format: binding; details: normalized percent of control; tested at 5 μM concentration for 3 hours
Method in brief: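 Cys-light KRas G12C mutant protein incubated with compound in K-Ras assay buffer, reactions quenched at set time points with 25 mM acetic acid and analysed by intact-protein LC/MS on a C-3 column. Deconvoluted mass heights expressed as percent of control (POC) relative to compound-free protein.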

[2] = tested on: NCI-H358 cells (express KRas G12C), Phospho-ERK; test: Cellular inhibition of KRas G12C: Phospho-ERK in NCI-H358 cells; format: cell-based; details: Homo sapiens, pERK(Thr202/Tyr204) normalized with GAPDH, NCI-H358 cells, 3 hours, read-out: IC50
Method in brief: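 IC50 derived by 4-parameter fit of GAPDH-normalized pERK(Thr202/Tyr204) signal, as percent of DMSO control. Signal came from in-cell immunodetection with infrared secondaries after 3 h compound exposure of KRas G12C NCI-H358 cells at 0.5% DMSO.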

SMILES	POC [1]	IC50 [2]	IC50 ([2]; NCI-H358, 3 h)
C=CC(=O)N1CCN(c2nc(OCCCN3CCOCC3)nc3c2CCN(c2cc(O)cc4ccccc24)C3=O)CC1 [Example 121, 4-(4-acryloylpiperazin-1-yl)-7-(3-hydroxynaphthalen-1-yl)-2-(3-morpholinopropoxy)-6,7-dihydropyrido[3,4-d]pyrimidin-8(5H)-one]	C (“C”>50% POC)	> 1000 nM	
C[C@H](CN(C)C)Oc1nc2c(c(N3CCN(C(=O)/C=C/CN(C)C)CC3)n1)CCN(c1cc(O)cc3ccccc13)C2 [Example 122, (R,E)-4-(dimethylamino)-1-(4-(2-((1-(dimethylamino)propan-2-yl)oxy)-7-(3-hydroxynaphthalen-1-yl)-5,6,7,8-tetrahydropyrido[3,4-d]pyrimidin-4-yl)piperazin-1-yl)but-2-en-1-one bis-trifluoroacetate]	C (“C”>50% POC)	> 1000 nM	
C=CC(=O)N1CCN(c2nc(OCC(O)CN3CCOCC3)nc3c2CCN(c2cc(O)cc4ccccc24)C3)CC1 (stereo not shown) [Example 123, 1-(4-(2-(2-hydroxy-3-morpholinopropoxy)-7-(3-hydroxynaphthalen-1-yl)-5,6,7,8-tetrahydropyrido[3,4-d]pyrimidin-4-yl)piperazin-1-yl)prop-2-en-1-one]	A (“A”≤25% POC)		> 1000 nM
C=CC(=O)N1CCN(c2nc(O[C@H](C)CN(C)C)nc3c2CCN(c2cc(O)c(F)c4ccccc24)C3)CC1 [Example 124, (R)-1-(4-(2-((1-(dimethylamino)propan-2-yl)oxy)-7-(4-fluoro-3-hydroxynaphthalen-1-yl)-5,6,7,8-tetrahydropyrido[3,4-d]pyrimidin-4-yl)piperazin-1-yl)prop-2-en-1-one]	C (“C”>50% POC)	> 1000 nM	
C=CC(=O)N1CCN(c2nc(O[C@H](C)CN(C)C)nc3c2CCN(c2cc(O)c(Cl)c4ccccc24)C3)CC1 [Example 125, (R)-1-(4-(7-(4-chloro-3-hydroxynaphthalen-1-yl)-2-((1-(dimethylamino)propan-2-yl)oxy)-5,6,7,8-tetrahydropyrido[3,4-d]pyrimidin-4-yl)piperazin-1-yl)prop-2-en-1-one]	A (“A”≤25% POC)	> 1000 nM	
C=CC(=O)N1CCN(c2nc(OCCc3ccccn3)nc3c2CCN(c2cc(O)cc4ccccc24)C3)CC1 [Example 126, 1-(4-(7-(3-hydroxynaphthalen-1-yl)-2-(2-(pyridin-2-yl)ethoxy)-5,6,7,8-tetrahydropyrido[3,4-d]pyrimidin-4-yl)piperazin 1-yl)prop-2-en-1-one trifluoroacetate]	C (“C”>50% POC)		> 1000 nM
C=CC(=O)N1CCN(c2nc(O[C@H](C)CN(C)CC)nc3c2CCN(c2cc(O)cc4ccccc24)C3)CC1 [Example 131, 1-[4-[2-[(1R)-2-[ethyl(methyl)amino]-1-methyl-ethoxy]-7-(3-hydroxy-1-naphthyl)-6,8-dihydro-5H-pyrido[3,4-d]pyrimidin-4-yl]piperazin-1-yl]prop-2-en-1-one]	C (“C”>50% POC)	0.1 to 1000 nM	

The next lines start with results.

POC [1]	SMILES	IC50 [2]	IC50 ([2]; NCI-H358, 3 h)
C (“C”>50% POC)	C=CC(=O)N1CCN(c2nc(N3CC(N(C)C)C3)nc3c2CCN(c2cc(O)cc4ccccc24)C3)CC1 [Example 128, 1-(4-(2-(3-(dimethylamino)azetidin-1-yl)-7-(3-hydroxynaphthalen-1-yl)-5,6,7,8-tetrahydropyrido[3,4-d]pyrimidin-4-yl)piperazin-1-yl)prop-2-en-1-one]		> 1000 nM
C (“C”>50% POC)	C=CC(=O)N1CCN(c2nc(O[C@H](C)[C@H]3CCCN3C)nc3c2CCN(c2cc(O)cc4ccccc24)C3)CC1 [Example 129, 1-[4-[7-(3-hydroxy-1-naphthyl)-2-[(1R)-1-[(2R)-1-methylpyrrolidin-2-yl]ethoxy]-6,8-dihydro-5H-pyrido[3,4-d]pyrimidin-4-yl]piperazin-1-yl]prop-2-en-1-one]		0.1 to 1000 nM
C (“C”>50% POC)	C=CC(=O)N1CCN(c2nc(O[C@@H](C)[C@@H]3CCCN3C)nc3c2CCN(c2cc(O)cc4ccccc24)C3)CC1 [Example 130, 1-(4-(7-(3-hydroxynaphthalen-1-yl)-2-((S)-1-((S)-1-methylpyrrolidin-2-yl)ethoxy)-5,6,7,8-tetrahydropyrido[3,4-d]pyrimidin-4-yl)piperazin-1-yl)prop-2-en-1-one]		0.1 to 1000 nM
C (“C”>50% POC)	C=CC(=O)N1CCN(c2nc(OCC3CCN(C4CCCCC4)C3)nc3c2CCN(c2cc(O)cc4ccccc24)C3)CC1 (stereo not shown) [Example 132, 1-[4-[2-[(1-cyclohexylpyrrolidin-3-yl)methoxy]-7-(3-hydroxy-1-naphthyl)-6,8-dihydro-5H-pyrido[3,4-d]pyrimidin-4-yl]piperazin-1-yl]prop-2-en-1-one]		0.1 to 1000 nM
C (“C”>50% POC)	C=CC(=O)N1CCN(c2nc(NCCCN3CCOCC3)nc3c2CCN(c2cc(O)cc4ccccc24)C3)CC1 [Example 133, 1-[4-[7-(3-hydroxy-1-naphthyl)-2-(3-morpholinopropylamino)-6,8-dihydro-5H-pyrido[3,4-d]pyrimidin-4-yl]piperazin-1-yl]prop-2-en-1-one]	> 1000 nM	
C (“C”>50% POC)	C=CC(=O)N1CCN(c2nc(OCCCN3CCN(C(C)=O)CC3)nc3c2CCN(c2cc(O)cc4ccccc24)C3)CC1 [Example 135, 1-[4-[2-[3-(4-acetylpiperazin-1-yl)propoxy]-7-(3-hydroxy-1-naphthyl)-6,8-dihydro-5H-pyrido[3,4-d]pyrimidin-4-yl]piperazin-1-yl]prop-2-en-1-one]		0.1 to 1000 nM
C (“C”>50% POC)	C=CC(=O)N1CCN(c2nc(OCCN3CCC(OC)C3)nc3c2CCN(c2cc(O)cc4ccccc24)C3)CC1 (stereo not shown) [Example 136, 1-[4-[7-(3-hydroxy-1-naphthyl)-2-[2-(3-methoxypyrrolidin-1-yl)ethoxy]-6,8-dihydro-5H-pyrido[3,4-d]pyrimidin-4-yl]piperazin-1-yl]prop-2-en-1-one]		> 1000 nM
C (“C”>50% POC)	C=CC(=O)N1CCN(c2nc(OCCCN3CCC(OC)C3)nc3c2CCN(c2cc(O)cc4ccccc24)C3)CC1 (stereo not shown) [Example 137, 1-[4-[7-(3-hydroxy-1-naphthyl)-2-[3-(3-methoxypyrrolidin-1-yl)propoxy]-6,8-dihydro-5H-pyrido[3,4-d]pyrimidin-4-yl]piperazin-1-yl]prop-2-en-1-one]		> 1000 nM
C (“C”>50% POC)	C=CC(=O)N1CCN(c2nc(OCCN3CC(F)(F)C3)nc3c2CCN(c2cc(O)cc4ccccc24)C3)CC1 [Example 138, 1-[4-[2-[2-(3,3-difluoroazetidin-1-yl)ethoxy]-7-(3-hydroxy-1-naphthyl)-6,8-dihydro-5H-pyrido[3,4-d]pyrimidin-4-yl]piperazin-1-yl]prop-2-en-1-one]		> 1000 nM
C (“C”>50% POC)	C=CC(=O)N1CCN(c2nc(OCCN3CCC(F)(F)C3)nc3c2CCN(c2cc(O)cc4ccccc24)C3)CC1 [Example 139, 1-[4-[2-[2-(3,3-difluoropyrrolidin-1-yl)ethoxy]-7-(3-hydroxy-1-naphthyl)-6,8-dihydro-5H-pyrido[3,4-d]pyrimidin-4-yl]piperazin-1-yl]prop-2-en-1-one]		> 1000 nM
